Source: the Kinase Knowledgebase extract (Sharma et al. 2016)
Several values for one entry are separate records, joined by “and”; a condition that tells them apart may be missing. Equal values may be shown once.

Tests used:
[1] = biological target: PIK3CG (human) (UniProt P48736); assay: Cell-Based Assay; conditions: u937
[2] = biological target: PIK3CG (human) (UniProt P48736); assay: Cell-Based Assay; conditions: u937; remark: listed apart in the source
[3] = biological target: PIK3CA (human) (UniProt P42336); assay: Enzyme Assay
[4] = biological target: PIK3CD (Human) (UniProt O00329); assay: Enzyme Assay
[5] = biological target: PIK3CG (human) (UniProt P48736); assay: Enzyme Assay
[6] = biological target: PIK3CB (Human) (UniProt P42338); assay: Enzyme Assay
Chain of PIK3CB (Human) (P42338 whole entry, looked up): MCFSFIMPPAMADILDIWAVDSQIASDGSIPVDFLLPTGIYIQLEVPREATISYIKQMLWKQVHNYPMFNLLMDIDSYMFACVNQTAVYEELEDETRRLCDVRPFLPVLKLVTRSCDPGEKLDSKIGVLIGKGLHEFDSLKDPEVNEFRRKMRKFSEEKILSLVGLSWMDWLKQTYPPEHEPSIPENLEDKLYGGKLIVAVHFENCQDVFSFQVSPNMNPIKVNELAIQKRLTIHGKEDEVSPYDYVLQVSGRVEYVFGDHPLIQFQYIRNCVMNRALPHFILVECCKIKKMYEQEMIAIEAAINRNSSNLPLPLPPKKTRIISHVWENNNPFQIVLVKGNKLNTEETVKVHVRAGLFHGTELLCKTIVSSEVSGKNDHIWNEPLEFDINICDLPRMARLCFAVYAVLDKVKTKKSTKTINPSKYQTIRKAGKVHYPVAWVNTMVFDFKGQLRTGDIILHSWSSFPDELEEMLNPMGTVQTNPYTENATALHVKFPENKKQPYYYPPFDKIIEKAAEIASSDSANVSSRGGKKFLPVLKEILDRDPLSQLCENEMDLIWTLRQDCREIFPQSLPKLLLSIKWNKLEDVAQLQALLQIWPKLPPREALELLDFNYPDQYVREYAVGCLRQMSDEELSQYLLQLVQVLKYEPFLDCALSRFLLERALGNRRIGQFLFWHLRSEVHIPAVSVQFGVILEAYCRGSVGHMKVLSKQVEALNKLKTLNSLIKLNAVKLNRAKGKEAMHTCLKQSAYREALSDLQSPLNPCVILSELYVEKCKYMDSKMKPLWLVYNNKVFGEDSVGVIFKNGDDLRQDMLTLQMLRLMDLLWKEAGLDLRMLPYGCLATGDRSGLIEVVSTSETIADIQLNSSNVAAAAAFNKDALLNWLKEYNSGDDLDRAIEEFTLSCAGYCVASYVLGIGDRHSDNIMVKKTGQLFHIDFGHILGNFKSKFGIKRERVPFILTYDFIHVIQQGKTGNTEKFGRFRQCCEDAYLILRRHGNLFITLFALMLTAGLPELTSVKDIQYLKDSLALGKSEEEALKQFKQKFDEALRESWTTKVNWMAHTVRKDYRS

Chain of PIK3CD (Human) (O00329 whole entry, looked up): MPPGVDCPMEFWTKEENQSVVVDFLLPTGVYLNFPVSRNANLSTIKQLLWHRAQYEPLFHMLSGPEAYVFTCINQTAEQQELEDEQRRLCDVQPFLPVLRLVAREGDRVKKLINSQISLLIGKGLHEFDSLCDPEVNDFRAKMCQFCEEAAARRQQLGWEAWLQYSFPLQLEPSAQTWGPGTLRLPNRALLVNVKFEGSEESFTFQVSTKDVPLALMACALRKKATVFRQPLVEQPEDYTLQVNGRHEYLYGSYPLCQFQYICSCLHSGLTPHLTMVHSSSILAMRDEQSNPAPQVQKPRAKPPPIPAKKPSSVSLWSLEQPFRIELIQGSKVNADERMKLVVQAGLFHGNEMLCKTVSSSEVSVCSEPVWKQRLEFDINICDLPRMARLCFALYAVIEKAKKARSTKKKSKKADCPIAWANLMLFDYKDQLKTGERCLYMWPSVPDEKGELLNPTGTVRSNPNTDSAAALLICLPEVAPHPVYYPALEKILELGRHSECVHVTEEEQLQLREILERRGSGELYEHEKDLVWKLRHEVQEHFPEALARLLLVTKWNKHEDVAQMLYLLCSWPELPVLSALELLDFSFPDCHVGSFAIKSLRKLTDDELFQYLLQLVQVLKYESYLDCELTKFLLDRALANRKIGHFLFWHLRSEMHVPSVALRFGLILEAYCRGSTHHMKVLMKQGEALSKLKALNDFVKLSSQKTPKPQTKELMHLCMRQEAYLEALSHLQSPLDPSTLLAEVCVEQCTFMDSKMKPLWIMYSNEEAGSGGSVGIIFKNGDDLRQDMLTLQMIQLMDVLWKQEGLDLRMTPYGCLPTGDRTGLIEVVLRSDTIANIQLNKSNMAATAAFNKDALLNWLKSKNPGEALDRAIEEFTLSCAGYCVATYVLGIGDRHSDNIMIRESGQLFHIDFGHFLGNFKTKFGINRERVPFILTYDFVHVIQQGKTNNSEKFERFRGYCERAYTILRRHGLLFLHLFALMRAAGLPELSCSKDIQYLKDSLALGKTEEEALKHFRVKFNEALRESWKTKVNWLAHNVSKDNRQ
Chain of PIK3CA (human) (P42336 whole entry, looked up): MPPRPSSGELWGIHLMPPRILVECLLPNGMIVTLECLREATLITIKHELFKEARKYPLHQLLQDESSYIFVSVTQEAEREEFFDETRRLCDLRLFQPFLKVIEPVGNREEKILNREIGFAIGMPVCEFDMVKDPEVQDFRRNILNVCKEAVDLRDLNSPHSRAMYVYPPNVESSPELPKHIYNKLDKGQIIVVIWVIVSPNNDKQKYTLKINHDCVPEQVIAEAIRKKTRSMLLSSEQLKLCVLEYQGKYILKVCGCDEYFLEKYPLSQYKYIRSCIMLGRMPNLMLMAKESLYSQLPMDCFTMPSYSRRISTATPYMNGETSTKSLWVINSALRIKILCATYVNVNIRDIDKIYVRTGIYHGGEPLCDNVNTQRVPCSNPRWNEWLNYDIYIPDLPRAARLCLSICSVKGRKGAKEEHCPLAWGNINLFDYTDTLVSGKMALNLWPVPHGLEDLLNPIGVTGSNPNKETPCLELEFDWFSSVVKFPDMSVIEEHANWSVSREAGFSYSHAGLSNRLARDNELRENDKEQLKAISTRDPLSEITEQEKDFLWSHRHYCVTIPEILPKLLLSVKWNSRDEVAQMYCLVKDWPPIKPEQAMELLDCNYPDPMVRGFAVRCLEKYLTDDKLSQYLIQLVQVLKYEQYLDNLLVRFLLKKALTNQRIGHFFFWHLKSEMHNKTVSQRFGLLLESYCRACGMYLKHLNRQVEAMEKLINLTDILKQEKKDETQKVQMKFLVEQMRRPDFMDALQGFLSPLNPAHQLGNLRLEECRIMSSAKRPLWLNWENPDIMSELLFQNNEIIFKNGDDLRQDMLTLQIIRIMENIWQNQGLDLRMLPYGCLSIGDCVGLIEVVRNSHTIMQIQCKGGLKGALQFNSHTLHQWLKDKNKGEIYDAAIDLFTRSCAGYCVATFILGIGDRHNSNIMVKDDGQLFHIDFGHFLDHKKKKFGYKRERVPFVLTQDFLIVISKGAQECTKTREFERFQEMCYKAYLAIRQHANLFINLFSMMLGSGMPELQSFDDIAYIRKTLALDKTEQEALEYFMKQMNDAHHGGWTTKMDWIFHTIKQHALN
Chain of PIK3CG (human) (P48736 whole entry, looked up): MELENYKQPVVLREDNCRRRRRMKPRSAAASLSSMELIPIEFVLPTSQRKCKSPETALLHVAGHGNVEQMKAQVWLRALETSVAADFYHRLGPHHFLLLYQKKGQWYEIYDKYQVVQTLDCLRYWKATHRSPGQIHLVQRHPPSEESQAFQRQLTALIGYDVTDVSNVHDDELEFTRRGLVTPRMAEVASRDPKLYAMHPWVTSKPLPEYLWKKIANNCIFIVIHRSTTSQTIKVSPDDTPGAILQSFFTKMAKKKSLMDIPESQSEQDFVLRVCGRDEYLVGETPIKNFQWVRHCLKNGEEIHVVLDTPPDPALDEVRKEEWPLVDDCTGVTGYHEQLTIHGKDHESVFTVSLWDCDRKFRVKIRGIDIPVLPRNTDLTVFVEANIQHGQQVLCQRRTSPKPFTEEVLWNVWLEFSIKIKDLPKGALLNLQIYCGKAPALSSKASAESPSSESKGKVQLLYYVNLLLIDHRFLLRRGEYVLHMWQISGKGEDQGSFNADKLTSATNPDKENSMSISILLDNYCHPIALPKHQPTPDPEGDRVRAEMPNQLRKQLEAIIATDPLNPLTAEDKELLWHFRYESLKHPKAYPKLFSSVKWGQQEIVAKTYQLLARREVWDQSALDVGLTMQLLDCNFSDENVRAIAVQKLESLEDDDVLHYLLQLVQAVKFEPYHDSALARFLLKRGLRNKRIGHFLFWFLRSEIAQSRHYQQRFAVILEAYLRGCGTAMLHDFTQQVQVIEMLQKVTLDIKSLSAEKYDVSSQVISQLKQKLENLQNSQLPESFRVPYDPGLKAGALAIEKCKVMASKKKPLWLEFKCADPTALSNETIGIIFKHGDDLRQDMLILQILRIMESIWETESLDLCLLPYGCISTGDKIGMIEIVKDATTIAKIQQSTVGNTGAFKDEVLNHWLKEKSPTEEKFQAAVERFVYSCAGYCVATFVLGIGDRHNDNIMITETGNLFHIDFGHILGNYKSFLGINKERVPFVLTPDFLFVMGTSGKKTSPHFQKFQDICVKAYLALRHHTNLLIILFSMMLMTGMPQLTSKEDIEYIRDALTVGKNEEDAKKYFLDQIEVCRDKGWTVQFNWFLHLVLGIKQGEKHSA

| IC50 [1] | IC50 [2] | IC50 [3] | IC50 [4] | IC50 [5] | IC50 [6] | SMILES |
| --- | --- | --- | --- | --- | --- | --- |
| 60 nM | 337 nM | – | – | – | – | Cc1ccc(S(=O)(=O)NCC[C@@H](O)C(F)(F)F)cc1-c1cnc(N)c(-c2cn(C)nc2C)n1.Cc1ccc(S(=O)(=O)NCC[C@H](O)C(F)(F)F)cc1-c1cnc(N)c(-c2cn(C)nc2C)n1 |
| 40 nM | – | – | – | – | – | Cc1ccc(S(=O)(=O)N[C@H]2CC3(C[C@@H](O)C3)C2)cc1-c1cnc(N)c(-c2cn(C)nc2C)n1 (some centres not stated) |
| 145 nM | – | – | – | – | – | Cc1ncc(-c2nc(-c3cc(S(=O)(=O)NCC4COCCN4C)ccc3C)cnc2N)s1 (configuration not stated) |
| 411 nM | – | – | – | – | – | Cc1ccc(S(=O)(=O)NC[C@H]2CCC(C)(C)O2)cc1-c1cnc(N)c(-n2cncn2)n1 |
| 63 nM | – | 180 nM | 1700 nM | 51 nM | 5220 nM | Cc1cc(-c2nc(-c3cc(S(=O)(=O)N[C@H]4CC[C@H](N)CC4)ccc3C)cnc2N)ccn1 |
| 103 nM and 135 nM | – | – | – | – | – | Cc1ccc(S(=O)(=O)N[C@H]2CC[C@@](C)(O)CC2)cc1-c1cnc(N)c(-n2cncn2)n1 |
| > 10000 nM | – | – | – | – | – | Cc1cc(-c2nc(-c3cc(S(=O)(=O)NCC4CCN(C)C4)ccc3C)cnc2N)ccn1 (configuration not stated) |
| – | – | 1100 nM | 330 nM | 81 nM | > 9100 nM | Cc1ccc(S(=O)(=O)NCC(C)(C)CO)cc1-c1cnc(N)c(-c2nc(C3CC3)no2)n1 |
| – | – | 40 nM | 40 nM | 5 nM | 990 nM | Cc1ncc(-c2nc(-c3cc(S(=O)(=O)NCC(F)(F)F)ccc3C)cnc2N)s1 |
| – | – | 1600 nM | 4500 nM | 820 nM | 2700 nM | CN[C@H]1CCC[C@@H]1NS(=O)(=O)c1ccc(C)c(-c2cnc(N)c(-c3ccnc(C)c3)n2)c1 |
| – | 241 nM | – | – | – | – | Cc1ccc(S(=O)(=O)NC[C@@H]2COCCN2C)cc1-c1cnc(N)c(-c2cn(C)nc2C)n1.Cc1ccc(S(=O)(=O)NC[C@H]2COCCN2C)cc1-c1cnc(N)c(-c2cn(C)nc2C)n1 |
| 129 nM | – | 200 nM | 292 nM | 12 nM | > 9100 nM | Cc1ccc(S(=O)(=O)NCCC(C)(C)O)cc1-c1cnc(N)c(-c2nc(C3CC3)no2)n1 |
| – | – | 960 nM | 2400 nM | 140 nM | 730 nM | Cc1ccc(S(=O)(=O)NC[C@H]2CNC[C@@H]2O)cc1-c1cnc(N)c(-n2cncn2)n1 |
| – | – | 1200 nM | 1700 nM | 61 nM | > 10000 nM | Cc1ccc(S(=O)(=O)NCC(C)(C)O)cc1-c1cnc(N)c(-c2nc(C(C)C)no2)n1 |
| – | – | 730 nM | 910 nM | 110 nM | 7500 nM | CN[C@@H]1CCC[C@H]1NS(=O)(=O)c1ccc(C)c(-c2cnc(N)c(-c3ccnc(C)c3)n2)c1 |
| 387 nM | – | 660 nM | 1500 nM | 94 nM | 1460 nM | Cc1ccc(S(=O)(=O)NCC2(O)CCOCC2)cc1-c1cnc(N)c(-n2cncn2)n1 |
